Data taken from US4665078A, “2-(3-amino-5-halo-2-pyridylalkylamino)-pyrimidones useful as histamine H1-antagonists” (Smith Kline & French Laboratories Limited, priority 1983, dated 1987).

Tests used:
[1] = test system: histamine H1-receptor; test: inhibition of H1-agonist induced reduction of blood pressure in the anaesthetised cat; type: in vivo; conditions: intravenous (femoral veins), 2-(2-aminoethyl)pyridine-induced reduction in blood pressure
Description: Cats of either sex weighing between 2 and 3 kg were starved overnight and anaesthetised with sodium pentabarbitone (60 mg/kg i.p.). The trachea was cannulated and blood pressure was measured in a femoral artery. The compound under investigation was administered by cannulae in the right and left femoral veins. Anaesthetic was administered as required into one brachial vein. Dose-response curves were constructed by administering a standard H1 -agonist, 2-(2-aminoethyl)pyridine in increasing dose from 10^-8 mol/kg to 10^-5 mol/kg. The 2-(2-aminoethyl)pyridine-induced reduction in blood pressure was measured. The effect of the antagonists can be quantified by displacement of the 2-(2-aminoethyl)pyridine dose-response curve expressed as a dose-ratio. The compounds of Examples 1 and 2 caused displacement of the dose-responsecurves with a dose-ratio of 10 at doses of 0.06 and 0.0058 micromole/kg respectively.

[2] = molecular target: T1, histamine H1-receptor (Cavia porcellus, UniProt P31389); test: guinea pig ileum test (in vitro histamine H1-antagonist activity); conditions: isolated guinea pig ileum, histamine-induced contraction, 8 min contact, 30° C.; read-out: pA2 value (converted)
T1 construct: an isolated portion of the guinea pig ileum is secured under tension; from tissue; host or cells: isolated guinea pig ileum
T1 sequence (P31389 whole entry): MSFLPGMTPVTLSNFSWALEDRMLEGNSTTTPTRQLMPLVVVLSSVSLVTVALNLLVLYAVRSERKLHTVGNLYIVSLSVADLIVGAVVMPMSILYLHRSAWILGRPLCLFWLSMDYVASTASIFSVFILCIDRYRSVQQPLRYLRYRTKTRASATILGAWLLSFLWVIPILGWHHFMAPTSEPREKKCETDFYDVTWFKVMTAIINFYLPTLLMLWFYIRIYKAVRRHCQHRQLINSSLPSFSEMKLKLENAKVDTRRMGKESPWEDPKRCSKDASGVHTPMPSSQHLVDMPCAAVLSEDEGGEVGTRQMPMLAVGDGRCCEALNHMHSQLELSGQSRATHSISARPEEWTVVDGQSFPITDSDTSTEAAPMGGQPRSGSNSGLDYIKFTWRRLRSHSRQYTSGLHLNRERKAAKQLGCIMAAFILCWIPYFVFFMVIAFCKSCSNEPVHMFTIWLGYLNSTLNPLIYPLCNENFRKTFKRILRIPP
Description: In this test an isolated portion of the guinea pig ileum is secured under tension (500 mg) between an anchorage and a transducer in a 10 ml tissue bath and immersed in magnesium free Tyrode solution with constant aeration at a temperature of 30° C. The output from the transducer is amplified. The amplified output is in turn fed to a flat bed recorder. Measured amounts of histamine are added to the tissue bath so that the histamine concentration increases step-wise until the force of the contraction reaches a maximum. The tissue bath is washed out and filled with fresh magnesium free Tyrode solution containing compound under test. The solution is left in contact with the tissue for 8 min. and measured amounts of histamine are added again until a maximum contraction is recorded. The assay is repeated with increasing concentrations of test compound and the dose of histamine giving 50% of maximum contraction is noted. A dose ratio (DR) was calculated by comparing the concentrations of histamine required to produce 50% maximum response in the absence and in the presence of the antagonist. A plot of Log DR-1 against Log D (the concentration of compound under test) is made and the point of intersection with the Log (DR-1) ordinate is taken as the measure of the activity (pA2 value).

[3] = molecular target: T2, histamine H2-receptor (Cavia porcellus, UniProt P47747); test: guinea pig atrium test (in vitro histamine H2-antagonist activity); conditions: isolated guinea pig right atrium, histamine-induced rate of beating, 60 min contact, 37° C.; read-out: pA2 value (converted)
T2 construct: a spontaneously beating isolated portion of the guinea pig right atrium is secured under tension; from tissue; host or cells: isolated guinea pig right atrium
T2 sequence (P47747 whole entry): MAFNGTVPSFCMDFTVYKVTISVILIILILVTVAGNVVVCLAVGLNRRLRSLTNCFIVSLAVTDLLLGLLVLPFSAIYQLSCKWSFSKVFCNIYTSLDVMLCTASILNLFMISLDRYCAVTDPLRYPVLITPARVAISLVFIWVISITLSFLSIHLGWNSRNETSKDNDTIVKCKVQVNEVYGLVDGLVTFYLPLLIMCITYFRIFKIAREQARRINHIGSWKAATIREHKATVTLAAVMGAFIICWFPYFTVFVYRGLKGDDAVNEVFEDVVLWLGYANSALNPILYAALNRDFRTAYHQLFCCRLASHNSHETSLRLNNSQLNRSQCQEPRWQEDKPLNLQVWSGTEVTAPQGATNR
Description: In this test a spontaneously beating isolated portion of the guinea pig right atrium is secured under tension (300 mg) between an anchorage and a transducer in a 15 ml tissue bath and immersed in McEwens solution with constant aeration at a temperature of 37° C. The output from the transducer is amplified. Output is in turn fed to a flat bed recorder. Measured amounts of histamine are added to the tissue bath so that the histamine concentration increases step-wise until the rate of beating reaches a maximum. The tissue bath is washed out and filled with fresh McEwens solution containing compound under test. The solution is left in contact with the tissue for 60 min. and measured amounts of histamine are added again until a maximum rate is recorded. The assay is repeated with increasing concentrations of test compound and the dose of histamine giving 50% of maximum rate is noted. A dose ratio (DR) was calculated by comparing the concentrations of histamine required to produce 50% maximum response in the absence and in the presence of the antagonist. A plot of Log DR-1 against Log D (the concentration of compound under test) is made and the point of intersection with the Log (DR-1) ordinate is taken as the measure of the activity (pA2 value).

[4] = molecular target: T1, histamine H1-receptor; test: inhibition of histamine induced bronchoconstriction in anaesthetised guinea pigs; type: in vivo; conditions: i.v., anaesthetised guinea pig, histamine curve 5 minutes after antagonist
Description: Guinea pigs of either sex are anesthetised by intraperitoneal injection of sodium pentobarbitone, 90 mg/kg. The trachea is cannulated. The animal is respired artificially with a fixed volume of air just adequate to inflate the lungs. The pressure needed to inflate the lungs is monitored from the respiratory system using a low pressure transducer. Intranvenous injection of histamine causes dose-dependent increases in the pressure to inflate the lungs reflecting the bronchoconstrictor action of histamine. Responses to histamine can be antagonised using histamine H1 -receptor antagonists.
Dose-response curves to histamine are established at 20, 40, 80, 160 and 320 nmols/kg. Antagonists are then administered by intravenous injection and 5 minutes later a new histamine dose-response curve is established increasing the doses of histamine as necessary. The effect of the antagonist can be quantified by the displacement, to the right, of the histamine dose-response curve, expressed as a dose-ratio. A series of doses of antagonists may be given to each animal allowing calculation of dose-ratios for each dose of antagonist. The compounds of Examples 1 and 2 hereafter cause displacement of histamine dose-response curves with a dose-ratio of 10 at doses of less than 0.8 micromole kg^-1 i.v.

SMILES	dose causing displacement of the 2-(2-aminoethyl)pyridine dose-response curve with a dose-ratio of 10 [1] [µmol/kg]	Kb [2] [nM]	Kb [3] [nM]	dose causing displacement of histamine dose-response curves with a dose-ratio of 10 [4]
Cc1ccc(Cc2cnc(NCCCCc3ncc(Br)cc3C)[nH]c2=O)cn1 [2-[4-(5-bromo-3-methylpyrid-2-yl)butylamino]-5-(6-methylpyrid-3-ylmethyl)-4-pyrimidone, reference compound]	0.215			
Nc1cc(Br)cnc1CCCCNc1ncc(Cc2cc[n+]([O-])cc2)c(=O)[nH]1 [Example 2, 2-[4-(5-bromo-3-aminopyrid-2yl)butylamino]-5-(N-oxopyrid-4-ylmethyl)-4-pyrimidone]	0.0058	< 10	> 1000	less than 0.8 micromole kg^-1
Cc1ccc(Cc2cnc(NCCCCc3ncc(Br)cc3N)[nH]c2=O)cn1 [Example 1, 2-[4-(5-bromo-3-aminopyrid-2-yl)butylamino]-5-(6-methylpyrid-3-ylmethyl) 4-pyrimidone]	0.06	< 10	> 1000	less than 0.8 micromole kg^-1
